# Measured values as given in patent US20210371491A1, “CHIMERIC ANTIGEN RECEPTORS THAT BIND TO PROSTATE SPECIFIC MEMBRANE ANTIGEN” (Albert-Ludwigs-Universitaet Freiburg, priority 2018, published 2021).
# “And” between values parts separate entries of the source, which are not always exact repeats. Identical values can stand only once.
# Tested on: C4-2^luc+ tumor xenografts
# Test: Treatment of C4-2^luc+ tumor xenografts by docetaxel chemotherapy plus intravenous CAR T cells (Example 12)
# Type: in vivo, mice
# Description: (A) Schematic of combined chemotherapy with intravenous CAR T cell therapy. Tumor engraftment was established in animals by subcutaneous injection of 1.5×10^6 cells. Chemotherapy had started at day 1 of the treatment for 3 days by intraperitoneal injection of docetaxel (DOC, 6 mg/kg bw). 48 hours after the last chemotherapy cycle, mice were injected intravenously with single doses of 5×10^6 CAR28 (n=3) or CAR41 T cells (n=3). Control mice were injected with docetaxel alone (n=3) or left untreated (control, n=4). Tumors were visualized via BLI until the end of treatment at day 17. D, day; i.v, intravenous injection; i.p, intraperitoneal; s.c, subcutaneous.
# (B) Antitumor activity of CAR28 and CAR41 T cells in combination with docetaxel chemotherapy. Mice with subcutaneously growing C4-2^luc+ tumors (200-250 mm^3) were intraperitoneally injected with docetaxel (DOC; 6 mg/kg bw) on days 1, 2, and 3 of treatment. 48 hours later mice were additionally injected with a single dose of 5×10^6 CAR28 (n=3) or CAR41 T cells (n=3) intravenously. Tumor growth was monitored by BLI. […] Statistical significant differences are indicated by *p<0.05.
# Mice with large C4-2^luc+ tumor xenografts (200-250 mm^3) were intraperitoneally injected with 3 daily cycles of docetaxel (DOC, 6 mg/kg bw on days 1, 2, and 3 of treatment) (FIG. 9A). 48 hours after the last cycle, mice were intravenously injected with only one dose of 5×10^6 CAR28 (n=3) CAR41 T cells (n=3), or PBS (n=3) respectively (FIG. 9A). Control animals (n=4) remained completely untreated. Tumor growth was monitored by BLI as described above. […] Compared to the control group (1817.5±165.5 mm^3) tumor end volumes of 338.2±355.6 mm^3 for mice treated with DOC alone and of 599.9±317.2 mm^3 for mice treated with DOC+CAR28 were reached on day 17 (FIG. 9C). […] A mean tumor volume of 50.2±71.0 mm^3 was determined (FIG. 9C).
structure (smiles),measurement,setting,value
"CC(=O)O[C@@]12CO[C@@H]1C[C@H](O)[C@@]1(C)C(=O)[C@H](O)C3=C(C)[C@@H](OC(=O)[C@H](O)[C@@H](NC(=O)OC(C)(C)C)c4ccccc4)C[C@@](O)([C@@H](OC(=O)c4ccccc4)[C@H]21)C3(C)C [DOC, docetaxel]",tumor growth compared to control group (in words),DOC 6 mg/kg bw days 1-3 ± CAR T cells i.v.,inhibition of tumor growth
same,"partial remission (PR), mice","DOC 6 mg/kg bw i.p. days 1-3, CAR T cells 5×10^6 i.v. 48 h later, tumors 200-250 mm^3",⅔
same,mean tumor volume,"day 17, DOC 6 mg/kg bw days 1-3 ± CAR T cells i.v.",338.2±355.6 mm^3 and 338.3±355.6 mm^3
